# Results taken from patent US20170173002A1, “Compositions and Methods for Treating an Infection” (CMPD LICENSING, LLC, priority 2015, published 2017).
# How the values were obtained:
# Aspergillus flavus = experiment: Expected efficacy of antifungal agents; settings: expected efficacy against Aspergillus flavus
# Aspergillus fumigatus = experiment: Expected efficacy of antifungal agents; settings: expected efficacy against Aspergillus fumigatus
# Aspergillus niger = experiment: Expected efficacy of antifungal agents; settings: expected efficacy against Aspergillus niger
# Aspergillus terreus = experiment: Expected efficacy of antifungal agents; settings: expected efficacy against Aspergillus terreus
# Blastomyces dermatitidis = experiment: Expected efficacy of antifungal agents; settings: expected efficacy against Blastomyces dermatitidis
# Candida species = experiment: Expected efficacy of antifungal agents; settings: expected efficacy against Candida species
# Coccidioides immitis = settings: expected efficacy against Coccidioides immitis
# Cryptococcus neoformans = experiment: Expected efficacy of antifungal agents; settings: expected efficacy against Cryptococcus neoformans
# Histoplasma capsulatum = settings: expected efficacy against Histoplasma capsulatum
# Leishmania donovani = experiment: Expected efficacy of antifungal agents; settings: expected efficacy against Leishmania donovani
# Leishmania infantum = experiment: Expected efficacy of antifungal agents; settings: expected efficacy against Leishmania infantum
# [1] = system: Paracoccidioides brasiliensis; experiment: Expected efficacy of antifungal agents; settings: expected efficacy against Paracoccidioides brasiliensis
# [2] = system: gram-positive staphylococci and streptococci; settings: background description of the drug; cited from earlier work
# Bacteroides fragilis = experiment: Expected efficacy of antibiotic agents; settings: expected efficacy against Bacteroides fragilis
# Clostridium difficile = experiment: Expected efficacy of antibiotic agents; settings: expected efficacy against Clostridium difficile
# Chlamydia pneumoniae = experiment: Expected efficacy of antibiotic agents; settings: expected efficacy against Chlamydia pneumoniae
# Chlamydia trachomatis = experiment: Expected efficacy of antibiotic agents; settings: expected efficacy against Chlamydia trachomatis
# Mycoplasma pneumoniae = experiment: Expected efficacy of antibiotic agents; settings: expected efficacy against Mycoplasma pneumoniae
# Acinetobacter baumannii = experiment: Expected efficacy of antibiotic agents; settings: expected efficacy against Acinetobacter baumannii
# [3] = system: Acinetobacter calcoaceticus; experiment: Expected efficacy of antibiotic agents; settings: expected efficacy against Acinetobacter calcoaceticus
# Acinetobacter lwoffii = experiment: Expected efficacy of antibiotic agents; settings: expected efficacy against Acinetobacter lwoffii
# Bartonella bacilliformis = experiment: Expected efficacy of antibiotic agents; settings: expected efficacy against Bartonella bacilliformis
# Bordetella pertussis = experiment: Expected efficacy of antibiotic agents; settings: expected efficacy against Bordetella pertussis
# Campylobacter jejuni = experiment: Expected efficacy of antibiotic agents; settings: expected efficacy against Campylobacter jejuni
# Citrobacter diversus = experiment: Expected efficacy of antibiotic agents; settings: expected efficacy against Citrobacter diversus
# Citrobacter freundii = experiment: Expected efficacy of antibiotic agents; settings: expected efficacy against Citrobacter freundii
# Enterobacter aerogenes = experiment: Expected efficacy of antibiotic agents; settings: expected efficacy against Enterobacter aerogenes
# Enterobacter cloacae = experiment: Expected efficacy of antibiotic agents; settings: expected efficacy against Enterobacter cloacae
# Enterobacter sakazakii = experiment: Expected efficacy of antibiotic agents; settings: expected efficacy against Enterobacter sakazakii
# Escherichia coli = experiment: Expected efficacy of antibiotic agents; settings: expected efficacy against Escherichia coli
# Haemophilus ducreyi = experiment: Expected efficacy of antibiotic agents; settings: expected efficacy against Haemophilus ducreyi
# Haemophilus influenzae = experiment: Expected efficacy of antibiotic agents; settings: expected efficacy against Haemophilus influenzae
# [4] = system: Haemophilus parainfluenzae; experiment: Expected efficacy of antibiotic agents; settings: expected efficacy against Haemophilus parainfluenzae
# [5] = system: Klebsiella (Calymmatobacterium) granulomatis; experiment: Expected efficacy of antibiotic agents; settings: expected efficacy against Klebsiella (Calymmatobacterium) granulomatis
# Klebsiella oxytoca = experiment: Expected efficacy of antibiotic agents; settings: expected efficacy against Klebsiella oxytoca
# Klebsiella pneumoniae = experiment: Expected efficacy of antibiotic agents; settings: expected efficacy against Klebsiella pneumoniae
# Moraxella catarrhalis = experiment: Expected efficacy of antibiotic agents; settings: expected efficacy against Moraxella catarrhalis
# Morganella morganii = experiment: Expected efficacy of antibiotic agents; settings: expected efficacy against Morganella morganii
# Neisseria gonorrhoeae = experiment: Expected efficacy of antibiotic agents; settings: expected efficacy against Neisseria gonorrhoeae
# Neisseria meningitidis = experiment: Expected efficacy of antibiotic agents; settings: expected efficacy against Neisseria meningitidis
# Proteus mirabilis = experiment: Expected efficacy of antibiotic agents; settings: expected efficacy against Proteus mirabilis
# Proteus vulgaris = experiment: Expected efficacy of antibiotic agents; settings: expected efficacy against Proteus vulgaris
# Providencia rettgeri = experiment: Expected efficacy of antibiotic agents; settings: expected efficacy against Providencia rettgeri
# Providencia stuartii = experiment: Expected efficacy of antibiotic agents; settings: expected efficacy against Providencia stuartii
# Pseudomonas aeruginosa = experiment: Expected efficacy of antibiotic agents; settings: expected efficacy against Pseudomonas aeruginosa
# Pseudomonas fluorescens = experiment: Expected efficacy of antibiotic agents; settings: expected efficacy against Pseudomonas fluorescens
# Salmonella typhi = experiment: Expected efficacy of antibiotic agents; settings: expected efficacy against Salmonella typhi
# Serratia marcescens = experiment: Expected efficacy of antibiotic agents; settings: expected efficacy against Serratia marcescens
# Shigella boydii = experiment: Expected efficacy of antibiotic agents; settings: expected efficacy against Shigella boydii
# Shigella dysenteriae = experiment: Expected efficacy of antibiotic agents; settings: expected efficacy against Shigella dysenteriae
# Shigella flexneri = experiment: Expected efficacy of antibiotic agents; settings: expected efficacy against Shigella flexneri
# Shigella sonnei = experiment: Expected efficacy of antibiotic agents; settings: expected efficacy against Shigella sonnei
# Vibrio cholerae = experiment: Expected efficacy of antibiotic agents; settings: expected efficacy against Vibrio cholerae
# Corynebacterium jeikeium = experiment: Expected efficacy of antibiotic agents; settings: expected efficacy against Corynebacterium jeikeium
# [6] = system: Corynebacterium urealyticum; experiment: Expected efficacy of antibiotic agents; settings: expected efficacy against Corynebacterium urealyticum
# Diphtheroids = experiment: Expected efficacy of antibiotic agents; settings: expected efficacy against Diphtheroids
# Enterococcus faecalis = experiment: Expected efficacy of antibiotic agents; settings: expected efficacy against Enterococcus faecalis
# Enterococcus faecium = experiment: Expected efficacy of antibiotic agents; settings: expected efficacy against Enterococcus faecium
# [7] = system: Methicillin resistant staph aureus (MRSA); experiment: Expected efficacy of antibiotic agents; settings: expected efficacy against Methicillin resistant staph aureus (MRSA)
# Peptostreptococcus = experiment: Expected efficacy of antibiotic agents; settings: expected efficacy against Peptostreptococcus
# [8] = system: Staphylococcus aureus (MSSA); experiment: Expected efficacy of antibiotic agents; settings: expected efficacy against Staphylococcus aureus (MSSA)
# [9] = system: Staphylococcus epidermidis; experiment: Expected efficacy of antibiotic agents; settings: expected efficacy against Staphylococcus epidermidis
# Streptococcus agalactiae = experiment: Expected efficacy of antibiotic agents; settings: expected efficacy against Streptococcus agalactiae
# Streptococcus pneumoniae = experiment: Expected efficacy of antibiotic agents; settings: expected efficacy against Streptococcus pneumoniae
# Streptococcus pyogenes = experiment: Expected efficacy of antibiotic agents; settings: expected efficacy against Streptococcus pyogenes
# [10] = system: Viridans group streptococci; experiment: Expected efficacy of antibiotic agents; settings: expected efficacy against Viridans group streptococci
# Fusarium species = experiment: Expected efficacy of antifungal agents; settings: expected efficacy against Fusarium species
# Scedosporium apiospermum = experiment: Expected efficacy of antifungal agents; settings: expected efficacy against Scedosporium apiospermum
structure (smiles),measurement,setting,value
"C[C@@H]1[C@H](O)[C@@H](C)/C=C/C=C/C=C/C=C/C=C/C=C/C=C/[C@H](O[C@@H]2O[C@H](C)[C@@H](O)[C@H](N)[C@@H]2O)C[C@@H]2O[C@](O)(C[C@@H](O)C[C@@H](O)[C@H](O)CC[C@@H](O)C[C@@H](O)CC(=O)O[C@H]1C)C[C@H](O)[C@H]2C(=O)O [Amphotericin, amphotericin b]",Efficacy,Aspergillus flavus,yes
same,Efficacy,Aspergillus fumigatus,yes
same,Efficacy,Aspergillus niger,yes
same,Efficacy,Aspergillus terreus,yes
same,Efficacy,Blastomyces dermatitidis,yes
same,Efficacy,Candida species,yes
same,Efficacy,Coccidioides immitis,yes
same,Efficacy,Cryptococcus neoformans,yes
same,Efficacy,Histoplasma capsulatum,yes
same,Efficacy,Leishmania donovani,yes
same,Efficacy,Leishmania infantum,yes
same,Efficacy,[1],yes
OC(Cn1cncn1)(Cn1cncn1)c1ccc(F)cc1F [Fluconazole],Efficacy,Aspergillus flavus,yes
same,Efficacy,Aspergillus fumigatus,yes
same,Efficacy,Blastomyces dermatitidis,yes
same,Efficacy,Candida species,yes
same,Efficacy,Coccidioides immitis,yes
same,Efficacy,Cryptococcus neoformans,yes
same,Efficacy,Histoplasma capsulatum,yes
C/C(=C\C(=O)OCCCCCCCCC(=O)O)C[C@@H]1OC[C@H](C[C@@H]2O[C@H]2[C@@H](C)[C@@H](C)O)[C@@H](O)C1O (stereo partly drawn) [Mupirocin],activity against gram-positive staphylococci and streptococci,[2],excellent activity
CN[C@H](CC(C)C)C(=O)N[C@H]1C(=O)N[C@@H](CC(N)=O)C(=O)N[C@H]2C(=O)N[C@H]3C(=O)N[C@H](C(=O)N[C@H](C(=O)O)c4cc(O)cc(O)c4-c4cc3ccc4O)[C@H](O)c3ccc(c(Cl)c3)Oc3cc2cc(c3O[C@@H]2O[C@H](CO)[C@@H](O)[C@H](O)[C@H]2O[C@H]2C[C@](C)(N)[C@H](O)[C@H](C)O2)Oc2ccc(cc2Cl)[C@H]1O [Vancomycin],Efficacy,Bacteroides fragilis,no
same,Efficacy,Clostridium difficile,yes
same,Efficacy,Clostridium perfringens,no
same,Efficacy,Chlamydia pneumoniae,no
same,Efficacy,Chlamydia psittaci,no
same,Efficacy,Chlamydia trachomatis,no
same,Efficacy,Mycoplasma pneumoniae,no
same,Efficacy,Acinetobacter baumannii,no
same,Efficacy,[3],no
same,Efficacy,Acinetobacter lwoffii,no
same,Efficacy,Bartonella bacilliformis,no
same,Efficacy,Bordetella pertussis,no
same,Efficacy,Brucella species,no
same,Efficacy,Campylobacter jejuni,no
same,Efficacy,Citrobacter diversus,no
same,Efficacy,Citrobacter freundii,no
same,Efficacy,Enterobacter aerogenes,no
same,Efficacy,Enterobacter cloacae,no
same,Efficacy,Enterobacter sakazakii,no
same,Efficacy,Escherichia coli,no
same,Efficacy,Francisella tularensis,no
same,Efficacy,Haemophilus ducreyi,no
same,Efficacy,Haemophilus influenzae,no
same,Efficacy,[4],no
same,Efficacy,[5],no
same,Efficacy,Klebsiella oxytoca,no
same,Efficacy,Klebsiella pneumoniae,no
same,Efficacy,Legionella pneumophila,no
same,Efficacy,Moraxella catarrhalis,no
same,Efficacy,Morganella morganii,no
same,Efficacy,Neisseria gonorrhoeae,no
same,Efficacy,Neisseria meningitidis,no
same,Efficacy,Proteus mirabilis,no
same,Efficacy,Proteus vulgaris,no
same,Efficacy,Providencia rettgeri,no
same,Efficacy,Providencia stuartii,no
same,Efficacy,Pseudomonas aeruginosa,no
same,Efficacy,Pseudomonas fluorescens,no
same,Efficacy,Rickettsiae,no
same,Efficacy,Salmonella typhi,no
same,Efficacy,Serratia marcescens,no
same,Efficacy,Shigella boydii,no
same,Efficacy,Shigella dysenteriae,no
same,Efficacy,Shigella flexneri,no
same,Efficacy,Shigella sonnei,no
same,Efficacy,Vibrio cholerae,no
same,Efficacy,Yersinia pestis,no
same,Efficacy,Corynebacterium jeikeium,yes
same,Efficacy,[6],yes
same,Efficacy,Diphtheroids,yes
same,Efficacy,Enterococcus faecalis,yes
same,Efficacy,Enterococcus faecium,"yes, not VRE"
same,Efficacy,[7],yes
same,Efficacy,Peptostreptococcus,yes
same,Efficacy,[8],yes
same,Efficacy,[9],yes
same,Efficacy,Streptococcus agalactiae,yes
same,Efficacy,Streptococcus pneumoniae,yes
same,Efficacy,Streptococcus pyogenes,yes
same,Efficacy,[10],yes
"C[C@@H](c1ncncc1F)[C@](O)(Cn1cncn1)c1ccc(F)cc1F [Voriconazole, voriconazole]",Efficacy,Aspergillus flavus,yes
same,Efficacy,Aspergillus fumigatus,yes
same,Efficacy,Aspergillus niger,yes
same,Efficacy,Aspergillus terreus,yes
same,Efficacy,Candida species,yes
same,Efficacy,Fusarium species,yes
same,Efficacy,Scedosporium apiospermum,yes
